Measured values reported in ChEMBL document CHEMBL4828703, “Structure-activity relationship study of THZ531 derivatives enables the discovery of BSJ-01-175 as a dual CDK12/13 covalent inhibitor with efficacy in Ewing sarcoma” (Eur J Med Chem, 2021).
Activity calls are given as the source filed them. The rule behind the calls is not given here.

Experiments:
[1] = target: Cyclin-dependent kinase 7/ cyclin H (Homo sapiens, UniProt P50613); assay: Inhibition of CDK7/Cyclin H (unknown origin); format: protein-complex assay
[2] = target: Cyclin-dependent kinase 13/Cyclin-K (Homo sapiens, UniProt Q14004); assay: Inhibition of human recombinant CDK13/CyclinK assessed as reduction in substrate phosphorylation using His-c-Myc as substrate preincubated with enzyme for 5 mins followed by substrate addition for 15 mins in presence of [gamma 32P-ATP] by radioactive kinase assay; format: protein-complex assay
CDK2/Cyclin A2 = CDK2/Cyclin A2 (Homo sapiens, UniProt P24941); assay: Inhibition of CDK2/Cyclin A (unknown origin); format: protein-complex assay
CDK12/Cyclin K = CDK12/Cyclin K (Homo sapiens, UniProt Q9NYV4); assay: Inhibition of human recombinant CDK12/CyclinK assessed as reduction in substrate phosphorylation using His-c-Myc as substrate preincubated with enzyme for 5 mins followed by substrate addition for 15 mins in presence of [gamma 32P-ATP] by radioactive kinase assay; format: protein-complex assay
CDK9/cyclin T1 = CDK9/cyclin T1 (Homo sapiens, UniProt P50750); assay: Inhibition of CDK9/Cyclin T1 (unknown origin); format: protein-complex assay
[3] = Metabolic stability in mouse liver microsomes assessed as half life; format: ADME, Microsome
[4] = Downregulation of RNA polymerase 2 in human Jurkat cells at 1 uM measured after 6 hrs by immunoblotting analysis; format: functional
[5] = Downregulation of RNA polymerase 2 CTD phosphorylation at Ser7 residue in human Jurkat cells at 1 uM incubated for 6 hrs by immunoblotting analysis; format: functional
[6] = Antiproliferative activity against human Kelly cells harboring wild type CDK12 assessed as reduction in cell viability incubated for 72 hrs by CelTiter-Glo assay; format: functional, cell-based
[7] = target: Cyclin-dependent kinase 12/13 (Homo sapiens) (UniProt Q14004+Q9NYV4); assay: Inhibition of CDK12/13 in human jurkat cells assessed as reduction in RNA polymerase 2 CTD phosphorylation at Ser2 residue at 1 uM measured after 6 hrs by immunoblotting analysis; format: cell-based
[8] = Downregulation of RNA polymerase 2 CTD phosphorylation at Ser5 residue in human Jurkat cells at 1 uM incubated for 6 hrs by immunoblotting analysis; format: functional
[9] = target: Cyclin-dependent kinase 7 (Homo sapiens) (UniProt P50613); assay: Inhibition of THZ1-biotin binding from CDK7 in human Jurkat cells at 1 uM incubated for 6 hrs by CyclinH antibody based competitive pull down assay; format: cell-based
[10] = Antiproliferative activity against human TC71 cells assessed as reduction in cell viability; format: functional, cell-based; details: TC-71
[11] = Antiproliferative activity against human Kelly cells harboring CDK12 C1039F mutant assessed as reduction in cell viability incubated for 72 hrs by CellTiter-Glo assay; format: functional, cell-based

Sequence of CDK9/cyclin T1 (O60563 whole entry): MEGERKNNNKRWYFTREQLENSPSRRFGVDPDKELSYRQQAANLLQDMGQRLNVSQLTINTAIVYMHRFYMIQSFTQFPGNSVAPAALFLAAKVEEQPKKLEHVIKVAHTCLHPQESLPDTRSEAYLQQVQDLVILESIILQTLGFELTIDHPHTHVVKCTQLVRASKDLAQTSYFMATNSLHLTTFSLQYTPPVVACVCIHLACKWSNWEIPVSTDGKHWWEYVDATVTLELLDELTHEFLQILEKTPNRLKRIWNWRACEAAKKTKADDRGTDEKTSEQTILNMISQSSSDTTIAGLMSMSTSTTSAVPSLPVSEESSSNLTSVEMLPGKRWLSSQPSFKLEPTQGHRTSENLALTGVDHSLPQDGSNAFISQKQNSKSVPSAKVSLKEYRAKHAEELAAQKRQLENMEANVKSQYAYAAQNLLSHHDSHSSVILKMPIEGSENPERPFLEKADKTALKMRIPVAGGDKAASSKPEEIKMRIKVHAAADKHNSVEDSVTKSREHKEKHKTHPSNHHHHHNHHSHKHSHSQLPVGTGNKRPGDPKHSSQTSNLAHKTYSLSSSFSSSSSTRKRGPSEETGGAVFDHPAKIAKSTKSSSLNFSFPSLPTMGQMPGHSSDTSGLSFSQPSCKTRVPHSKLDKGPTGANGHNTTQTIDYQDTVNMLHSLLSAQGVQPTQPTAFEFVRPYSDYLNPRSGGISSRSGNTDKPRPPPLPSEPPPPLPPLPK
Sequence of CDK9/cyclin T1 (P50750 whole entry): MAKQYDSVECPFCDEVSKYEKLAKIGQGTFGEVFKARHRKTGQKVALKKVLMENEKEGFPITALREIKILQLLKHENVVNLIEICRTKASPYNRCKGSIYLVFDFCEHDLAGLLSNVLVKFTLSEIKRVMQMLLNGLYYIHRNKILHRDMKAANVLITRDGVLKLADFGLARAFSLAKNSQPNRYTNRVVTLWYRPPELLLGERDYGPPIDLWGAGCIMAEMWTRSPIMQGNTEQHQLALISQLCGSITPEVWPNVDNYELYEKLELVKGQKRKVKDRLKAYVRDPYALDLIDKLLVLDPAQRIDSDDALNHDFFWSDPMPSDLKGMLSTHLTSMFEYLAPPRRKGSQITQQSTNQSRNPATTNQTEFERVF
Sequence of CDK12/Cyclin K (O75909 whole entry): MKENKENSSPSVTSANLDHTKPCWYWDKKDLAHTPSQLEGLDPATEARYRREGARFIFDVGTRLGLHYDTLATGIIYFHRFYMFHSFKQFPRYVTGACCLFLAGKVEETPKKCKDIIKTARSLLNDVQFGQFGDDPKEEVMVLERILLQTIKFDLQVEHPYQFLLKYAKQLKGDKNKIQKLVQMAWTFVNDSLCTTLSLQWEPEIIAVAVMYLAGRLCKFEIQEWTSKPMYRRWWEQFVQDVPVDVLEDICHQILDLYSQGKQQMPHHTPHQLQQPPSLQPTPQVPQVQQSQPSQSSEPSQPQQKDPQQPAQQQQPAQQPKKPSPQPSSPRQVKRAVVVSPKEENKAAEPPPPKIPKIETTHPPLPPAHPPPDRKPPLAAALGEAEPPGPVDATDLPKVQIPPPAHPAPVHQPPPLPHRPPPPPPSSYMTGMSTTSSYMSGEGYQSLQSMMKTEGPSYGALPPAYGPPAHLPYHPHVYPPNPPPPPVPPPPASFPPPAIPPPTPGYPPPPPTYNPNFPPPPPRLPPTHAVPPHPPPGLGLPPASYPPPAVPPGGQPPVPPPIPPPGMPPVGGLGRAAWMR
Sequence of CDK12/Cyclin K (Q9NYV4 whole entry): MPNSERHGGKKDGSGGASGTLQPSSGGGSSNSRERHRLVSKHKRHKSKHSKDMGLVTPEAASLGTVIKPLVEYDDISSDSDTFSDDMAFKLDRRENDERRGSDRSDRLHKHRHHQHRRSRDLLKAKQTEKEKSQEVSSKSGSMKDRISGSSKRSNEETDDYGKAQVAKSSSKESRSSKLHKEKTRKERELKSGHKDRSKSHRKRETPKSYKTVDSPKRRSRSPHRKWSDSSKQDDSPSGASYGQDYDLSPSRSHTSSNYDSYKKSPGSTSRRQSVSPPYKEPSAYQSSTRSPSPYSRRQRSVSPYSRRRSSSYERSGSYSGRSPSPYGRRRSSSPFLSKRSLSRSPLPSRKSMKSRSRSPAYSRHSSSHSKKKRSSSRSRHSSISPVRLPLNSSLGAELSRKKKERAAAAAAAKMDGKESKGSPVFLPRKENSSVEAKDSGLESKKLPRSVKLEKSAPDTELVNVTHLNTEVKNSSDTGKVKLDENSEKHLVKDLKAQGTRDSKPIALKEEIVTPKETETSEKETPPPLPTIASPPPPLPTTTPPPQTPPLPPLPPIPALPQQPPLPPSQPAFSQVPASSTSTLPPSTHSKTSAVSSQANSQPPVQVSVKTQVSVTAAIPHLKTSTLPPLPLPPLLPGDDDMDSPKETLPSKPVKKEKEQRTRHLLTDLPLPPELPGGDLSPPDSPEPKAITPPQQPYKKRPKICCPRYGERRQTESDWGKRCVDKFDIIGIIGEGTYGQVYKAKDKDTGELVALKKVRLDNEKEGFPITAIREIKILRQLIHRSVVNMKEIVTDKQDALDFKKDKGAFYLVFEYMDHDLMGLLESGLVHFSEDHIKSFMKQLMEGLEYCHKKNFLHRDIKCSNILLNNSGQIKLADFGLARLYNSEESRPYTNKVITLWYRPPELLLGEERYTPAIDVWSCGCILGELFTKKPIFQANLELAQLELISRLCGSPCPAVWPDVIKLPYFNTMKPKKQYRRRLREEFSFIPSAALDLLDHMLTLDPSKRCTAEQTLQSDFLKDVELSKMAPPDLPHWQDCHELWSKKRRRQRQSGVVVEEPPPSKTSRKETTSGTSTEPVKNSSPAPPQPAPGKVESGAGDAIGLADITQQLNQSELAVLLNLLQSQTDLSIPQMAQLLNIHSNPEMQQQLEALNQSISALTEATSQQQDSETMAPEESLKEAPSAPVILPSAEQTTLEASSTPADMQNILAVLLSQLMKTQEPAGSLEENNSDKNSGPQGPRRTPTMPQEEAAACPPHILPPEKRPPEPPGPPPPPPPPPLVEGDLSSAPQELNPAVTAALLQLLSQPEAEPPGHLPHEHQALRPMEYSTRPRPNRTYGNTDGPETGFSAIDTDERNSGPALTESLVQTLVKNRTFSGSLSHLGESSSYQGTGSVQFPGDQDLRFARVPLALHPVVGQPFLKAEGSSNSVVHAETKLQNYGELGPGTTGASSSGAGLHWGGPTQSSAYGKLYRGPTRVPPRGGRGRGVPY
Sequence of Cyclin-dependent kinase 7/ cyclin H (P51946 whole entry): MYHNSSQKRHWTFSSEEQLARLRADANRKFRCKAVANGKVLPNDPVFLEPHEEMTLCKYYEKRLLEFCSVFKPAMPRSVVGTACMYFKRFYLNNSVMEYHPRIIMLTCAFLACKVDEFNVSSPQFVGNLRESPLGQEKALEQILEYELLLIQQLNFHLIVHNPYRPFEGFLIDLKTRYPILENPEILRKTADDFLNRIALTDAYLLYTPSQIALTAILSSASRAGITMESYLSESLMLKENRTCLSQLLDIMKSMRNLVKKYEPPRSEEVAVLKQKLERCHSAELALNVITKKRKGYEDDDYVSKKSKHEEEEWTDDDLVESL
Sequence of Cyclin-dependent kinase 7/ cyclin H (P50613 whole entry): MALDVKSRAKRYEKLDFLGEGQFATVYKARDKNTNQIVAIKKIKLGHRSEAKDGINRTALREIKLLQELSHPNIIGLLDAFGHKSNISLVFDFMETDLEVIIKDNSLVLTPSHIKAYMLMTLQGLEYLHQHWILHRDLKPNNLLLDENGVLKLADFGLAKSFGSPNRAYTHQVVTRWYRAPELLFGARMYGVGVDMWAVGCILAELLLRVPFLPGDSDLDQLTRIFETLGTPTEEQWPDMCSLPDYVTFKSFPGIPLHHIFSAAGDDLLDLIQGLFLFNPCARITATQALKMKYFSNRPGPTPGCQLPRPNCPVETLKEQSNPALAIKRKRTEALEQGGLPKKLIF
Sequence of Cyclin-dependent kinase 7 (Homo sapiens) (P50613 whole entry): as above

SMILES | IC50 [1] [nM] | IC50 [2] [nM] | IC50 (CDK2/Cyclin A2) [nM] | IC50 (CDK12/Cyclin K) [nM] | IC50 (CDK9/cyclin T1) [nM] | also measured
CN(C)C/C=C/C(=O)Nc1ccc(O[C@H]2CCC[C@@H](Nc3ncc(Cl)c(-c4c[nH]c5ccccc45)n3)C2)cc1 | 112 | 182 | 650 | 181 | 132 | –
CN(C)C/C=C/C(=O)Nc1ccc(C(=O)N2CCC[C@@H](Nc3ncc(Cl)c(-c4c[nH]c5ccccc45)n3)C2)nc1 | – | 1640 | – | 765 | – | –
CN(C)C/C=C/C(=O)Nc1ccc(C(=O)N2CCCC[C@@H](Nc3ncc(Cl)c(-c4c[nH]c5ccccc45)n3)C2)cc1 | 388 | 1830 | 339 | 1450 | 1220 | –
CN(C)C/C=C/C(=O)Nc1ccc(C(=O)N2CCC[C@@H](Nc3ncc(C(F)(F)F)c(-c4c[nH]c5ccccc45)n3)C2)cc1 | > 10000 | 10000 | 10000 | > 10000 | > 10000 | –
C=CC(=O)Nc1ccc(C(=O)N2CCC[C@@H](Nc3ncc(Cl)c(-c4c[nH]c5ccccc45)n3)C2)nc1 | – | 799 | – | 232 | – | t1/2 [3]: 3.5 min
CN(C)C/C=C/C(=O)Nc1ccc(C(=O)N2CC[C@@H](Nc3ncc(Cl)c(-c4c[nH]c5ccccc45)n3)C2)cc1 | – | 50.2 | 49.3 | 68.7 | 14.2 | –
Nc1ccc(OC2CCC[C@@H](Nc3ncc(Cl)c(-c4cn(S(=O)(=O)c5ccccc5)c5ccccc45)n3)C2)cc1 (stereo partly specified) | – | – | – | – | – | t1/2 [3]: 5.4 min
CN(C)C/C=C/C(=O)Nc1ccc(C(=O)N2CCC[C@@H](Nc3ncc(C4CC4)c(-c4c[nH]c5ccccc45)n3)C2)cc1 | 625 | > 10000 | > 10000 | 9980 | > 10000 | –
CN(C)C/C=C/C(=O)Nc1ccc(C(=O)N2CCC[C@@H](Nc3ncc(Cl)c(-c4c[nH]c5ccccc45)n3)C2)cc1 | – | 657 | 1300 | 483 | 193 | inhibition at 1 µM [4]: 0%; inhibition at 1 µM [5]: 42%; IC50 [6]: 93 nM; inhibition [7]: 76%; inhibition at 1 µM [8]: 0%; inhibition [9]: Active; IC50 [10]: 65.9 nM; IC50 [11]: 254 nM
CN(C)C/C=C/C(=O)Nc1ccc(O[C@@H]2CCC[C@@H](Nc3ncc(Cl)c(-c4c[nH]c5ccccc45)n3)C2)c(F)c1 | – | 484 | – | 857 | – | –
CN(C)C/C=C/C(=O)Nc1ccc(N2CCC[C@@H](Nc3ncc(Cl)c(-c4c[nH]c5ccccc45)n3)C2)cc1 | 69.5 | 178 | 623 | 167 | 155 | –
CN(C)C/C=C/C(=O)Nc1ccc(N2CCC[C@@H](Nc3ncc(Cl)c(-c4c[nH]c5ccccc45)n3)C2)nc1 | – | 186 | – | 35.4 | – | –
CN(C)C/C=C/C(=O)Nc1ccc(C(=O)N2CCC[C@@H](Nc3ncc(Br)c(-c4c[nH]c5ccccc45)n3)C2)cc1 | 115 | 573 | 1000 | 226 | 184 | –
